Assay results: publication PMC10669542, “Ascorbate Peroxidase 2 (APX2) of Chlamydomonas Binds Copper and Modulates the Copper Insertion into Plastocyanin” (Antioxidants, 2023)

Molecular target: T1, APX2 (recombinant His-tagged APX2) (Chlamydomonas reinhardtii, UniProt A0A2K3DPX4)
T1 construct: gene CHLRE_06g285150v5
T1 sequence (A0A2K3DPX4 97-337): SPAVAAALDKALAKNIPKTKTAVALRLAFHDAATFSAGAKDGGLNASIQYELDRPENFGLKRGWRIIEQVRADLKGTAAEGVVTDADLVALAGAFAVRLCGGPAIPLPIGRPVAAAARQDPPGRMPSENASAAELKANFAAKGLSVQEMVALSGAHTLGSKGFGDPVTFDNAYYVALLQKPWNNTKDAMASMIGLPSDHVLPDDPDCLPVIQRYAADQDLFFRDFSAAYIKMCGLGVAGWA
Assay: peroxidase assay, tetraguaiacol formation at […] nm
Format: biochemical
Conditions: electron donor, 10 mM; H2O2 varied 0-1 mM; 0.2 uM enzyme; 20 mM potassium phosphate pH 6.0

COc1ccccc1O [guaiacol]
peroxidase assay, tetraguaiacol formation at 470 nm: The enzyme demonstrated activity in the presence of guaiacol, a well-known electron donor for peroxidases
